Data: patent publication US10301304B2, “Selective inhibitor of phosphatidylinositol 3-kinase-gamma” (VERTEX PHARMACEUTICALS INCORPORATED, priority 2013, dated 2019)

What was measured:
Test in all cases: Inhibition of CYP Enzymes in Human Liver Microsomes
Type in all cases: in vitro ADME
Set-up in all cases: from tissue; host or cells: human liver microsomes
CYP1A2 = CYP1A2 (Homo sapiens, UniProt P05177); conditions: CYP1A2, 30 μM Phenacetin
Protocol: (§1) Inhibition assays were conducted with selective CYP probes for each CYP enzyme at specific concentrations of substrate (close to its dissociation constant (Km) value). Compound 1 was a moderate inhibitor of CYP 1A2, 2B6 and 2C8; […]

CYP2B6 = CYP2B6 (Homo sapiens, UniProt P20813); conditions: CYP2B6, 100 μM Bupropion
Sequence of CYP2B6 (P20813 whole entry): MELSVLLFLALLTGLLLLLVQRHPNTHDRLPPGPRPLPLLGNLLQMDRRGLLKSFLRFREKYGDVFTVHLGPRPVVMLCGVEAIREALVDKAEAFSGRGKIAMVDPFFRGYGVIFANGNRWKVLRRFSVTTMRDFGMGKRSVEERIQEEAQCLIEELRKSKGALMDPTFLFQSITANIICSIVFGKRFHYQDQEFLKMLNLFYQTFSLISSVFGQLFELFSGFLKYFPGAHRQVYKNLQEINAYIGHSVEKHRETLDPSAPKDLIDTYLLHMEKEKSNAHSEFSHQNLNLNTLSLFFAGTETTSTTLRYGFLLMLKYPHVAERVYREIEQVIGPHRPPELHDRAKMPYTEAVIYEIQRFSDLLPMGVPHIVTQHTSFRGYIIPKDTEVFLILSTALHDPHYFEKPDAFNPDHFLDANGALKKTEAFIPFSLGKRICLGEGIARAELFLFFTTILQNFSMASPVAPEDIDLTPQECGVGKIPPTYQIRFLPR
Protocol: as §1

CYP2C19 = CYP2C19 (Homo sapiens, UniProt P33261); conditions: CYP2C19, 30 μM S-Mephenytoin
Sequence of CYP2C19 (P33261 whole entry): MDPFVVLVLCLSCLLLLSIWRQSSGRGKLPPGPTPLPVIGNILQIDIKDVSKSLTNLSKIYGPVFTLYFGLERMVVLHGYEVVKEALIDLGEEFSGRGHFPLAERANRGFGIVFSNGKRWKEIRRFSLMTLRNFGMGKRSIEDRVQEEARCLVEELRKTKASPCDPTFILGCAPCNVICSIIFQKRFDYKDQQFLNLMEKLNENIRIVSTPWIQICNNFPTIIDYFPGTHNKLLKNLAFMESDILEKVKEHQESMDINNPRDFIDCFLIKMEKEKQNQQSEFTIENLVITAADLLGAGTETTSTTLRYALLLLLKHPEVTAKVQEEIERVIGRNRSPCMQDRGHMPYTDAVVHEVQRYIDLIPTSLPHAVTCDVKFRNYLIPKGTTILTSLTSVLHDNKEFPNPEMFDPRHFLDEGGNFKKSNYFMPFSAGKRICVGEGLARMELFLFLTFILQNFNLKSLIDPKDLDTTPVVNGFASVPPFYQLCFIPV
Protocol: as §1

CYP2C8 = CYP2C8 (Homo sapiens, UniProt P10632); conditions: CYP2C8, 2.5 μM Paclitaxel
Sequence of CYP2C8 (P10632 whole entry): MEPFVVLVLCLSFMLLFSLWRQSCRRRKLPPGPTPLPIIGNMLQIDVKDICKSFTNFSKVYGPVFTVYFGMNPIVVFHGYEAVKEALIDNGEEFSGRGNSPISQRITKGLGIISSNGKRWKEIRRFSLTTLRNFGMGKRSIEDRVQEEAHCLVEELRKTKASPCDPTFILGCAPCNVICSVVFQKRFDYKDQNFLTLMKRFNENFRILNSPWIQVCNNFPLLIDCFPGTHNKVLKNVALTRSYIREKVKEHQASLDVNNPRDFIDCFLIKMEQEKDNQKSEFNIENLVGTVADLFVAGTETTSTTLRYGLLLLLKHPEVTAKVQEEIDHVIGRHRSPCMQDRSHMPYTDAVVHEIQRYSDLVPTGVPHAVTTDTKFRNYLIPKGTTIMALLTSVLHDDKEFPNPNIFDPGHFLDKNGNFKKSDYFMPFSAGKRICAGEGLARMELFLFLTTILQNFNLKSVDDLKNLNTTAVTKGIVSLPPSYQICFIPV
Protocol: as §1

CYP2C9 = CYP2C9 (Homo sapiens, UniProt P11712); conditions: CYP2C9, 2.5 μM Diclofenac
Sequence of CYP2C9 (P11712 whole entry): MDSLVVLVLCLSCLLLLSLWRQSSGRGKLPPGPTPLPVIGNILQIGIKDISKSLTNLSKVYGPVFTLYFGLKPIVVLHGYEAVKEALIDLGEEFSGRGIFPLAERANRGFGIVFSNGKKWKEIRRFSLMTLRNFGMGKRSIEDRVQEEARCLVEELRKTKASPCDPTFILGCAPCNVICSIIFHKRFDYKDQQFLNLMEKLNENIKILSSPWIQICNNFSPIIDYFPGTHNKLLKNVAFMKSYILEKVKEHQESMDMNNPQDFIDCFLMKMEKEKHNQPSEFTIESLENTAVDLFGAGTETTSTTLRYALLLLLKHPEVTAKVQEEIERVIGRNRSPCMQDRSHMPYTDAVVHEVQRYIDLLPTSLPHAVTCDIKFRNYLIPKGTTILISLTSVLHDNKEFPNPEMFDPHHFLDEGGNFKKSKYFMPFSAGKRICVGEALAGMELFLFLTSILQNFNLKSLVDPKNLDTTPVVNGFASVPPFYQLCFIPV
Protocol: as §1

CYP2D6 = CYP2D6 (Homo sapiens, UniProt P10635); conditions: CYP2D6, 10 μM Bufuralol
Sequence of CYP2D6 (P10635 whole entry): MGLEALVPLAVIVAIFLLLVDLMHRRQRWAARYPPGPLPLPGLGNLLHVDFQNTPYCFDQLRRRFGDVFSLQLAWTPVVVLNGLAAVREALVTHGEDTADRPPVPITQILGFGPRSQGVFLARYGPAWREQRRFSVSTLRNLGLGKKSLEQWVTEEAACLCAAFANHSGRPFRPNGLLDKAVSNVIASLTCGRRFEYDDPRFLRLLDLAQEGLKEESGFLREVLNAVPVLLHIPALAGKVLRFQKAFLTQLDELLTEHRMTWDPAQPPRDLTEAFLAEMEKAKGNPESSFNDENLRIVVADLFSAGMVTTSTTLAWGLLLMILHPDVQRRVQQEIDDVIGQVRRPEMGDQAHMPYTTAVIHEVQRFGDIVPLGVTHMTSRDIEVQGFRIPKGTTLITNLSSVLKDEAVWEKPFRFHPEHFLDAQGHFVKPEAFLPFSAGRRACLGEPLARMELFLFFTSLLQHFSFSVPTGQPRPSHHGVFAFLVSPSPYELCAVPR
Protocol: as §1

Sequence of CYP1A2 (P05177 whole entry): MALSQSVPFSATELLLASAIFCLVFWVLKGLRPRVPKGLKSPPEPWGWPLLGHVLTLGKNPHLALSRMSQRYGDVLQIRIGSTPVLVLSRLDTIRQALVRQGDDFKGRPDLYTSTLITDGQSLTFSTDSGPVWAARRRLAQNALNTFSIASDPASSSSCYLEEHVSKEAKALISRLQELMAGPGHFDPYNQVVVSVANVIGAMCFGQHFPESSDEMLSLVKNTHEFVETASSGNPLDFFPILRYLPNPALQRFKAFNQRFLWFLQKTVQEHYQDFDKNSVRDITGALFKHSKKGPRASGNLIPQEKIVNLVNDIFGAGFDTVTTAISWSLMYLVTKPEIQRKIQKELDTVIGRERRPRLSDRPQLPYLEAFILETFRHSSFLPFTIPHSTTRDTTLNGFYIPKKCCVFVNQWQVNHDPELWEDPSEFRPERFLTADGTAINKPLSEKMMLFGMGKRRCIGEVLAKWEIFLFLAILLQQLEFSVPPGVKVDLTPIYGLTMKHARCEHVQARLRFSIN

## Cc1cc(-c2cncc([C@@H](O)C(F)(F)F)c2)nc2c1C(=O)N(c1cnn(CC(F)F)c1)C2(C)C [Compound 1, (R)-6-(1-(2,2-difluoroethyl)-1H-pyrazol-4-yl)-4,7,7-trimethyl-2-(5-(2,2,2-trifluoro-1-hydroxyethyl)pyridin-3-yl)-6,7-dihydro-5H-pyrrolo[3,4-b]pyridin-5-one]
CYP1A2
  IC50: 7 µM
CYP2B6
  IC50: 4 µM
CYP2C19
  IC50: 21 µM
CYP2C8
  IC50: 7 µM
CYP2C9
  IC50: 32 µM
CYP2D6
  IC50: 64 µM
